These are literature values, as cited in US20040167145A1, “Active ingredient combination for the pharmacological therapy of nicotine dependence” (priority 2001, published 2004).

The conditions of this series: clinical studies; compared with 8% for placebo.

In the case of `CC(NC(C)(C)C)C(=O)c1cccc(Cl)c1` (stereo not shown) [bupropion], the 1-year abstinence rate is reported as 28%.
